Experimental data as given in patent US12162878B2 (HINOVA PHARMACEUTICALS INC., priority 2018, dated 2024).
pIC50: −log10 of the molar value.

Legend:
Assay type in all cases: cell-based, human
MCF-7 cells = test: Inhibition of proliferation of MCF-7 cells (CCK-8); conditions: for pIC50: Homo sapiens, MCF7, 144 h, 6 days, CCK-8
Experimental: (§1) • MCF-7 cell line (Cell Bank of Chinese Academy of Sciences, TCHu74) • FBS (Gibco, Cat. No. 10099-141) • 0.01M PBS (Biosharp, Cat. No. 162262) • RIPM1640 (Hyclone, Cat. No. 308090.01) • Penicillin-Streptomycin (Hyclone, Cat. No. SV30010) • Cell counting kit-8 (Signalway Antibody, Cat. No. CP002) • DMSO (Sigma, Cat. No. D5879) • Centrifuge Tube, 15 ml (Excell Bio, Cat. No. CS015-0001) • Cell Culture Dish, (Excell Bio, Cat. No. CS016-0128) • 96-well cell culture cluster (Corning, Cat. No. 3599) 3. Experimental Method
1) MCF-7 cells were subcultured in cell culture media, and the cells in good growth condition were seeded in a 96-well plate, 80 μL for each well, thus the number of cells per well was 1000, then the plate was cultured overnight in a 37° C., 5% CO2 cell incubator.
(§2) 2) The drug was prepared with dimethyl sulfoxide (DMSO) as a 10 mM stock solution. Prior to use, the solution was diluted 3 times with DMSO, and then diluted with a 3-fold gradient to obtain 9 concentration gradients. Then, each concentration of the compound was further diluted 200 times with the culture media (to ensure that DMSO concentration in the culture system was 0.1%), 2 repeat wells for each concentration. The diluted solution of each compound (20 μL) was added to the cell culture well (with a final concentration of 10 μM, 3.3 μM, 1.1 μM . . . ), and shaken gently for mixing.
In addition, three negative control wells containing only cells and three blank control wells containing only culture medium (20 μL DMSO diluted 200 times with culture medium being added to six wells) were included.
(§3) (1) After culturing for 6 days, 10 μL CCK-8 was added to each well and cultured for additional 2.5 h in a 37° C., 5% CO2 cell incubator.
(§4) (2) The absorbance (OD value) at 450 nm was measured with a multifunctional microplate reader.
(§5) (3) The data was analyzed by the Dose-response-inhibition equation in the software GraphPad Prism6, and the IC50 value was obtained.

MDA-MB-453 cells = test: Inhibition of proliferation of MDA-MB-453 cells (CCK-8); conditions: for pIC50: Homo sapiens, 144 h, 6 days, CCK-8
Experimental: as §1, with “MDA-MB-453” for “MCF-7”, “TCHu35)” for “TCHu74)”
1) MDA-MB-453 cells were subcultured in cell culture media, and the cells in good growth condition were seeded in a 96-well plate, 80 μL for each well, thus the number of cells per well was 1500, then the plate was cultured overnight in a 37° C., 5% CO2 cell incubator.
as §2, with “mixing. In addition, three negative control wells containing only cells and three blank control wells containing only culture medium (20 μL DMSO diluted 200 times with culture medium being added to six wells) were included.” for “mixing.”
as §3, §4, §5

MDA-MB-231 cells = test: Inhibition of proliferation of MDA-MB-231 cells (CCK-8); conditions: for pIC50: Homo sapiens, 144 h, 6 days, CCK-8
Experimental: as §1, with “MDA-MB-231” for “MCF-7”, “TCHu104)” for “TCHu74)”
1) MDA-MB-231 cells were subcultured in cell culture media, and the cells in good growth condition were seeded in a 96-well plate, 80 μL for each well, thus the number of cells per well was 1500, then the plate was cultured overnight in a 37° C., 5% CO2 cell incubator.
as §2, with “mixing. In addition, three negative control wells containing only cells and three blank control wells containing only culture medium (20 μL DMSO diluted 200 times with culture medium being added to six wells) were included.” for “mixing.”
as §3, §4, §5

SMILES	pIC50 (MCF-7 cells)	pIC50 (MDA-MB-453 cells)	pIC50 (MDA-MB-231 cells)	inhibitory action on MDA-MB-453 cells (in words) (MDA-MB-453 cells)	inhibitory action on MCF-7 cells (in words) (MCF-7 cells)	inhibitory action on MDA-MB-231 cells (in words) (MDA-MB-231 cells)
[2H]C([2H])([2H])n1cc(-c2cc(NS(=O)(=O)CC)ccc2N2CCC3(CC2)CC3)c2cc[nH]c2c1=O [Compound 41]	7.27	7.05	5.12	–	–	–
[2H]C([2H])([2H])n1cc(-c2cc(S(=O)(=O)CC)ccc2N2CCC3(CC3)C2)c2cc[nH]c2c1=O [Compound 55, 4-(5(ethylsulfonyl)-2-(5-aza-spiro[2.4]heptan-5-yl)phenyl)-6-trideuteromethyl-1H-pyrrolo[2,3-c]pyridin-7(6H)-one]	7.00	7.32	6.13	effective inhibitory action	–	–
[2H]C([2H])([2H])n1cc(-c2cc(S(C)(=O)=O)ccc2N2CCC3(CC2)CC3(F)F)c2cc[nH]c2c1=O [Compound 184, 4-(2-(1,1-difluoro-6-aza-spiro[2.5]octan-6-yl)-5-(methylsulfonyl)phenyl)-6-trideuteromethyl-1H-pyrrolo[2,3-c]pyridin-7(6H)-one]	7.85	6.36	7.59	–	effective inhibitory action	effective inhibitory action
